Experiments:
[1] = tested on: C-peptide antibodies; experiment: Phase II trial: antibody formation against C-peptide (ELISA); assay type: in vivo, human; settings: baseline and after 3 and 6 months of C-peptide treatment
From the text: C-peptide plasma samples, C-peptide antibodies, and markers for atherosclerosis were processed (centrifuged, etc.) and stored frozen until transport to a central lab. HLA typing samples were shipped to a central lab for processing and storage until analysis. All samples there were labelled uniquely, including information about screening number and sample time.
Samples for the assessment of antibody formation were collected at baseline and at visits 2 and 4. An appropriate enzyme-linked immunoabsorbant assay (ELISA) method was developed and assessments carried out.

[2] = tested on: type 1 diabetes patients with peripheral neuropathy; experiment: Phase II trial: clinical laboratory evaluation (hematology, blood chemistry, urinalysis); assay type: in vivo, human; settings: following the study treatment
From the text: Hematology: hemoglobin, hematocrit, mean cell volume, leukocytes, platelets, differential count
Blood chemistry: sodium, potassium, C-reactive protein (CRP), alanine transaminase, aspartate transaminase, serum creatinine, albumin
Urinanalysis: protein, blood, nitrite
Before starting the study, the investigator supplied the Sponsor with a list of the normal laboratory ranges and units of measurement for the laboratory variables to be determined during the study at the site. All abnormal laboratory (those out of the normal range) values required comments on the CRF, regardless of the clinical significance: […]

[3] = tested on: type 1 diabetes patients with peripheral neuropathy; experiment: Phase II trial: hypoglycemic events and hypoglycemic coma; assay type: in vivo, human
Protocol: The study was a multicenter, double-blind, randomized, placebo-controlled phase II trial comparing the effect of subcutaneous injection (S.C.) of 500 nmoL/24 h (1.5 mg) C-peptide; 1,500 nmoL/24 h (4.5 mg) C-peptide and placebo treatment for 6 months in type 1 diabetes patients with peripheral neuropathy.
Hypoglycemic events are common events in insulin-treated patients. For practical reasons only severe hypoglycemic events, i.e., if the patient required assistance from another person in order to regain normoglycaemia, were reported as an AE.

[4] = tested on: type 1 diabetes patients with peripheral neuropathy; experiment: Phase II trial: ECG and vital signs; assay type: in vivo, human; settings: for BPd (diastolic blood pressure), change from baseline to 6 months treatment, Mean ± SD / BPd (diastolic blood pressure), change from baseline to 6 months treatment, Median / BPs (systolic blood pressure), change from baseline to 6 months treatment, Mean ± SD / BPs (systolic blood pressure), change from baseline to 6 months treatment, Median / Heart rate, change from baseline to 6 months treatment, Mean ± SD / Heart rate, change from baseline to 6 months treatment, Median / QTc-interval Bazett, change from baseline to 6 months treatment, Mean ± SD / QTc-interval Bazett, change from baseline to 6 months treatment, Median / QTc-interval Fredericia, change from baseline to 6 months treatment, Mean ± SD / QTc-interval Fredericia, change from baseline to 6 months treatment, Median: PP data set
Protocol: ECG was performed at baseline and at end of study, i.e., visit 4 (at 6 months±2 weeks from the S/B visit).

[5] = tested on: type 1 diabetes patients with peripheral neuropathy; settings: in vivo
Protocol: The safety measurements comprised collection of AEs, spontaneously reported by the patient or recorded by the investigator at each clinical visit. Review of laboratory investigations, vital signs, and physical examinations was performed at the S/B visit, visit 2, and at end of study (visit 4). ECG was performed at the S/B visit and at visit 4.
An AE was classified as “unexpected event” (i.e., if not specifically listed in the Investigator's Brochure) in terms of nature, severity, or frequency. All AEs, including intercurrent illnesses and increased severity or frequency of sign/symptoms of a concomitant disease was reported and documented as described below. AEs were documented on an “Adverse Event/Serious Adverse Event” page of the CRF and in the patient's medical records. Any AE occurring at any time after the end of the study, considered to be caused by the study medication—and therefore a possible adverse drug reaction—was reported to the sponsor.
The period of observation for AEs extended from the time the patient started on trial medication until end of the study. AEs were divided into the categories “serious” and “non-serious”. This determined the procedure used to report/document the AE.
Regardless of the classification of an AE as serious or non-serious (see above), its severity was assessed as mild, moderate, or severe, according to medical criteria alone:
Descriptive statistics were used for safety variables. For lab parameters summary statistics were presented as change from baseline and between doses. The changes from baseline were calculated and compared with normal ranges. The safety analysis set included all patients who obtained at least one dose of the investigational drug. AEs were coded according to the MedDRA dictionary. The frequencies of AEs are tabulated by body system and included/preferred term.

[6] = Phase II trial: C-peptide plasma levels (time-resolved fluoroimmunoassay); assay type: in vivo, human
Protocol: The sampling of C-peptide in plasma at visits 2 and 4 coincided with the clinical visit and the time between the most recent administration of the trial drug and sampling varied between patients. Thereby, the result of C-peptide concentrations in plasma was less suitable for pharmacokinetic evaluations, but the results contributed to the assessment of treatment compliance.
C-peptide plasma levels were measured at baseline, and after 3 and 6 months of treatment. Analysis was performed by the Department of Clinical Chemistry Karolinska University Hospital, Solna using a time-resolved fluoroimmunoassay (AutoDelfia, Wallac Oy, Turku, Finland). […] The plasma levels of C-peptide attained in this study ranged from about 0.2 nM to a maximum of about 6 nM in the high dose group.
C-peptide plasma levels were also measured pre-dosing in the morning in 22 randomly selected patients at the Karolinska Hospital after 4.5 months of study treatment (visit 3). As compared to the C-peptide concentration at baseline, the C-peptide plasma level at this visit was unchanged in the placebo-treated patients (0±0.008 nmoL/L; n=10), increased by 0.045±0.092 nmoL/L in the low-dose C-peptide group (n=8) and increased by 0.13±0.083 nmoL/L in the high-dose C-peptide group (n=4).

[7] = High-dose C-peptide, Metabolism and nutritional disorders
[8] = Low-dose C-peptide, Metabolism and nutritional disorders

CC(C)C[C@H](NC(=O)[C@H](C)NC(=O)[C@H](CC(C)C)NC(=O)[C@@H]1CCCN1C(=O)[C@H](CCC(N)=O)NC(=O)[C@H](CC(C)C)NC(=O)[C@H](CO)NC(=O)CNC(=O)[C@H](C)NC(=O)CNC(=O)[C@@H]1CCCN1C(=O)CNC(=O)CNC(=O)CNC(=O)[C@H](CC(C)C)NC(=O)[C@H](CCC(=O)O)NC(=O)[C@@H](NC(=O)[C@H](CCC(N)=O)NC(=O)CNC(=O)[C@@H](NC(=O)[C@H](CCC(N)=O)NC(=O)[C@H](CC(C)C)NC(=O)[C@H](CC(=O)O)NC(=O)[C@H](CCC(=O)O)NC(=O)[C@H](C)NC(=O)[C@@H](N)CCC(=O)O)C(C)C)C(C)C)C(=O)N[C@@H](CCC(=O)O)C(=O)NCC(=O)N[C@@H](CO)C(=O)N[C@@H](CC(C)C)C(=O)N[C@@H](CCC(N)=O)C(=O)O [C-peptide]
reactivity (antibodies) to C-peptide [1]: no or very weak reactivity
changes in laboratory variables [2]: no significant changes in any of the variables
hypoglycemic coma episodes requiring external assistance ([3]; C-peptide treated group): Two
occurrences of hypoglycemic coma ([3]; C-peptide treated groups, 6 months, none in placebo group): four
Blood glucose fluctuation, number of AEs [3, 7]: 0
Hyperglycemia, number of AEs [3, 7]: 1
Hyperlipidemia, number of AEs [3, 7]: 0
Hypoglycemia, number of AEs [3, 7]: 5
Hypoglycemia, number of AEs probably/possibly related to study drug [3, 7]: 1
Hypoglycemic coma, number of AEs [3, 7]: 2
Hypothyroidism, number of AEs [3, 7]: 0
Increased appetite, number of AEs [3, 7]: 0
Insulin sensitivity, number of AEs [3, 7]: 0
Vitamin B12 deficiency, number of AEs [3, 7]: 1
Blood glucose fluctuation, number of AEs [3, 8]: 0
Hyperglycemia, number of AEs [3, 8]: 1 (1)
Hyperglycemia, number of AEs probably/possibly related to study drug [3, 8]: 1 (1)
Hyperlipidemia, number of AEs [3, 8]: 1
Hypoglycemia, number of AEs [3, 8]: 2
Hypoglycemia, number of AEs probably/possibly related to study drug [3, 8]: 1
Hypoglycemic coma, number of AEs [3, 8]: 2
Hypothyroidism, number of AEs [3, 8]: 0
Increased appetite, number of AEs [3, 8]: 0
Insulin sensitivity, number of AEs [3, 8]: 1 (1)
Insulin sensitivity, number of AEs probably/possibly related to study drug [3, 8]: 1 (1)
Vitamin B12 deficiency, number of AEs [3, 8]: 0
risk of hypoglycemic coma ([3]; subpopulation of patients, C-peptide replacement therapy): increased risk of hypoglycemic coma
BPd (diastolic blood pressure), change from baseline to 6 months treatment, Mean ± SD ([4]; High-dose C-peptide, n = 39): −2.6 ± 8.0 mm Hg
BPd (diastolic blood pressure), change from baseline to 6 months treatment, Median ([4]; High-dose C-peptide, n = 39): −1.0 mm Hg
BPs (systolic blood pressure), change from baseline to 6 months treatment, Mean ± SD ([4]; High-dose C-peptide, n = 39): −8.8 ± 10.0 mm Hg
BPs (systolic blood pressure), change from baseline to 6 months treatment, Median ([4]; High-dose C-peptide, n = 39): −8.0 mm Hg
Heart rate, change from baseline to 6 months treatment, Mean ± SD ([4]; High-dose C-peptide, n = 39): −3.2 ± 10.0 bpm
Heart rate, change from baseline to 6 months treatment, Median ([4]; High-dose C-peptide, n = 39): −4.0 bpm
QTc-interval Bazett, change from baseline to 6 months treatment, Mean ± SD ([4]; High-dose C-peptide, n = 39): -4.5 ± 20.3 ms
QTc-interval Bazett, change from baseline to 6 months treatment, Median ([4]; High-dose C-peptide, n = 39): 0.0 ms
QTc-interval Fredericia, change from baseline to 6 months treatment, Mean ± SD ([4]; High-dose C-peptide, n = 39): -0.5 ± 16.2 ms
QTc-interval Fredericia, change from baseline to 6 months treatment, Median ([4]; High-dose C-peptide, n = 39): 0.0 ms
BPd (diastolic blood pressure), change from baseline to 6 months treatment, Mean ± SD ([4]; Low-dose C-peptide, n = 53): −2.7 ± 8.2 mm Hg
BPd (diastolic blood pressure), change from baseline to 6 months treatment, Median ([4]; Low-dose C-peptide, n = 53): −1.0 mm Hg
BPs (systolic blood pressure), change from baseline to 6 months treatment, Mean ± SD ([4]; Low-dose C-peptide, n = 53): −2.1 ± 12.8 mm Hg
BPs (systolic blood pressure), change from baseline to 6 months treatment, Median ([4]; Low-dose C-peptide, n = 53): −1.0 mm Hg
Heart rate, change from baseline to 6 months treatment, Mean ± SD ([4]; Low-dose C-peptide, n = 53): −0.9 ± 8.2 bpm
Heart rate, change from baseline to 6 months treatment, Median ([4]; Low-dose C-peptide, n = 53): −2.0 bpm
QTc-interval Bazett, change from baseline to 6 months treatment, Mean ± SD ([4]; Low-dose C-peptide, n = 53): -0.1 ± 17.5 ms
QTc-interval Bazett, change from baseline to 6 months treatment, Median ([4]; Low-dose C-peptide, n = 53): 0.0 ms
QTc-interval Fredericia, change from baseline to 6 months treatment, Mean ± SD ([4]; Low-dose C-peptide, n = 53): 0.9 ± 14.1 ms
QTc-interval Fredericia, change from baseline to 6 months treatment, Median ([4]; Low-dose C-peptide, n = 53): 1.3 ms
changes in heart rate, blood pressure, and QTc ([4]; any of the three treatment groups): nor were there any significant changes
decrease in systolic blood pressure compared to the low-dose C-peptide group ([4]; high-dose C-peptide group, p<0.004, not different from placebo): significantly greater decrease
AEs possibly/probably related to the study drug [5]: 8
Acute HIV infection, number of AEs [5]: 1
Infections and infestations: Acute HIV infection, treatment emergent AE intensity (number of incidences) [5]: M (1)
Infections and infestations: Herpes zoster, treatment emergent AE intensity (number of incidences) [5]: M (1)
Nasopharyngitis, number of AEs [5]: 23
expected concentrations relative to the low dose regimen ([6]; high dose 1,500 nmoL/24 h S.C., expected): ~3 times
increase of pre-dosing morning C-peptide plasma level vs baseline ([6]; high-dose C-peptide group, n=4, 4.5 months (visit 3)): 0.13 ± 0.083 nmol/L
expected physiological mean plasma concentration ([6]; low dose 500 nmoL/24 h S.C., 4 times daily, expected): ~1 nmoL/L
increase of pre-dosing morning C-peptide plasma level vs baseline ([6]; low-dose C-peptide group, n=8, 4.5 months (visit 3)): 0.045 ± 0.092 nmol/L

From patent US7855177B1, “Methods and kits for preventing hypoglycemia” (Cebix Inc., priority 2009, dated 2010)
